Data set [1] deals with T1, 5-HT1B receptor (Homo sapiens, UniProt P28222).
T1 construct: expressed in transfected cells
The data set can be described thus: cAMP accumulation functional assay at 5-HT1B. The class given is cell-based. The note with it: agonist, cAMP accumulation; for Emax: max dose, read-out: 5-HT1B % Act @ Max Dose. A digest of the protocol:
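Agonist activity measured as cAMP accumulation in cells stably transfected with human 5-HT1B. Cells incubated 60 min at RT, then detection reagent added for a further 60 min at RT before plate reading.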

In data set [2] the target is T2, 5-HT1A receptor (Homo sapiens, UniProt P08908).
T2 construct: expressed in transfected cells; host or cells: CHO cells, stably transfected
T2 sequence (P08908 1-422): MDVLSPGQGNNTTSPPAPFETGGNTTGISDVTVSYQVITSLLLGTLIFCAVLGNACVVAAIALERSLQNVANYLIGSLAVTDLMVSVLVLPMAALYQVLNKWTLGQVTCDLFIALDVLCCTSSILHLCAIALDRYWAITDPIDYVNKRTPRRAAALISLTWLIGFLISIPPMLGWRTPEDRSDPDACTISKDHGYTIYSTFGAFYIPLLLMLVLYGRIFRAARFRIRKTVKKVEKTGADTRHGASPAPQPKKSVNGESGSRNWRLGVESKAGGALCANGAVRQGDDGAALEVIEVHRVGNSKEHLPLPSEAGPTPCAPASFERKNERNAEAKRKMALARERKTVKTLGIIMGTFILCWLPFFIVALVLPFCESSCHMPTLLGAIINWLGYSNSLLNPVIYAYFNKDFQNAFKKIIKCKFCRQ
Description: cell-based. The following applies: agonist, Ca2+ flux; for Emax: CHO, CHO cells with Gα15, max dose, read-out: 5-HT1A % Act @ Max Dose; for EC50: CHO cells with Gα15. A digest of the protocol:
(§1)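 FLIPR Tetra fluorescence read-out of calcium flux after compound addition. Receptor-expressing stable lines were used (HEK293 for 2A/2B; CHO with Gα15 for 1A), dye-loaded with Fluo-4 Direct and 2.5 mM final probenecid, 50 min at 37 °C.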

Data set [3] is described as follows: in vitro. In kind it is in vitro ADME, human. The note with it: human, microsomes, HLM 0.50 mg/mL, NADPH 1 mM, 1 μM compound, pH 7.4, 37° C., 60 min; for microsomal CLint: read-out: Intrinsic clearance (Clint); for half-life: read-out: half-life (t1/2).
The target in data set [4] is T3, 5-HT2A receptor (Homo sapiens, UniProt P28223). The data set can be described thus: cell-based. The class given is cell-based. The following applies: agonist, beta-arrestin recruitment; for EC50: PathHunter, read-out: 5-HT2A Arrestin EC50; for Emax: max dose, read-out: 5-HT2A Arrestin % Act @ Max Dose. A digest of the protocol: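 PathHunter β-arrestin recruitment (enzyme fragment complementation): 5-HT2A fused to ProLink donor in cells co-expressing β-arrestin–β-galactosidase acceptor, seeded and held at 37° C before testing. Chemiluminescent read-out; agonist % activity = (sample RLU − vehicle)/(max control ligand − vehicle) × 100.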
T3 sequence (P28223 whole entry, the tested form may be a part): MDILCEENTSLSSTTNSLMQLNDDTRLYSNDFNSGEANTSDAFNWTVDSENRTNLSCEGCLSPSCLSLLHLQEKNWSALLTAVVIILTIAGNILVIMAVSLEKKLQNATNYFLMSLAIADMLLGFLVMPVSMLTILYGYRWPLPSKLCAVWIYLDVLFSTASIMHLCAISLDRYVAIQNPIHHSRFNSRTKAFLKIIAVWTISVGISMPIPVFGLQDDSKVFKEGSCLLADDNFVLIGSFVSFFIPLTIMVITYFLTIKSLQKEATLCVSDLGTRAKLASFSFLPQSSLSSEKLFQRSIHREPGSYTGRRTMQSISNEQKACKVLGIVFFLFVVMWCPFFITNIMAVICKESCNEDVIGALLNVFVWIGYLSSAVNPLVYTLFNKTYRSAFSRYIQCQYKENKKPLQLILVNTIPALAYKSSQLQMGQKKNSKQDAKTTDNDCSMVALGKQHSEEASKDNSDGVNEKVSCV
In general terms: Arrestin recruitment assays detect the binding of arrestin to an activated receptor.

Data set [5] addresses T3, 5-HT2A receptor. Description: cell-based. In kind it is cell-based. Also on record: expressed in transfected cells; host or cells: HEK293, stably transfected. The following applies: Ca2+ flux; for Emax: HEK293, agonist, HEK293, max dose, read-out: 5-HT2A % Act @ Max Dose; for EC50: agonist, HEK293. The method, boiled down:
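Cells plated and incubated overnight at 37 °C, 5% CO2; Fluo-4 Direct dye with probenecid (final 2.5 mM) added, 50 min at 37 °C; test compounds transferred and Ca2+ signal recorded. HEK293 hosts for 5-HT2A/2B, CHO + Gα15 for 5-HT1A.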
On the technique in general: Calcium flux is commonly read through the fluorescence of an indicator in the cells.

The target of data set [6] is T4, 5-HT2B receptor (Homo sapiens, UniProt P41595).
T4 construct: expressed in transfected cells; host or cells: HEK293, stably transfected
T4 sequence (P41595 whole entry): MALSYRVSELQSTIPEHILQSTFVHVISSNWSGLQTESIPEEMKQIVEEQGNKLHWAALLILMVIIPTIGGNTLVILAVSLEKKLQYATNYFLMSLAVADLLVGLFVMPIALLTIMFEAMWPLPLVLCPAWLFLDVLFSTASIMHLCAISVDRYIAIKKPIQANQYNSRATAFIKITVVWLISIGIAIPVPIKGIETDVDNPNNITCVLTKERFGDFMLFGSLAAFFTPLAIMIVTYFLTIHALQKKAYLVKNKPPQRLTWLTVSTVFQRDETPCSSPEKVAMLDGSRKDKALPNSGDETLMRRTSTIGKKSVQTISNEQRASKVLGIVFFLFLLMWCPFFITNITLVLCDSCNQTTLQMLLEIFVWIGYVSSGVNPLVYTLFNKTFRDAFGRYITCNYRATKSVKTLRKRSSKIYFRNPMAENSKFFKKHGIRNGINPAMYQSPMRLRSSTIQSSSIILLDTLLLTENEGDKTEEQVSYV
Description: cell-based. The following applies: Ca2+ flux; for Emax: HEK293, agonist, HEK293, max dose, read-out: 5-HT2B % Act @ Max Dose; for EC50: agonist, HEK293. The class given is cell-based. A digest of the protocol:
as §1

In data set [7] the target is T3, 5-HT2A receptor. Description: biochemical. The class given is binding. Also noted: expressed in transfected cells; host or cells: HEK293, stably transfected. The note with it: [3H]ketanserin 1 nM; HEK293 stable cell line; 1 h, 25 °C. A digest of the protocol:
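Affinity was measured in radioligand binding experiments using [^3H]ketanserin as the labelled ligand, following methods adapted from published procedures.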

A short description of data set [8]: in vitro. The class given is in vitro ADME, mouse. The following applies: mouse, microsomes, MLM (male CD-1) 0.50 mg/mL, NADPH 1 mM, 1 μM compound, pH 7.4, 37° C., 60 min; for microsomal CLint: read-out: Intrinsic clearance (Clint); for half-life: read-out: half-life (t1/2). The source says:
MLM Stability Pooled MLM from male CD-1 mice (BIOIVT M00501) were used.

A short description of data set [9]: in vitro. In kind it is in vitro ADME, rat. The following applies: rat, microsomes, RLM (male Sprague-Dawley) 0.50 mg/mL, NADPH 1 mM, 1 μM compound, pH 7.4, 37° C., 60 min; for microsomal CLint: read-out: Intrinsic clearance (Clint); for half-life: read-out: half-life (t1/2). The source says: RLM Stability Pooled RLM from male Sprague-Dawley rats (Xenotech R1000) were used.

The structures appear in SMILES notation. Read-outs that look alike come from different tables or passages of the source.

T1 sequence (P28222 whole entry): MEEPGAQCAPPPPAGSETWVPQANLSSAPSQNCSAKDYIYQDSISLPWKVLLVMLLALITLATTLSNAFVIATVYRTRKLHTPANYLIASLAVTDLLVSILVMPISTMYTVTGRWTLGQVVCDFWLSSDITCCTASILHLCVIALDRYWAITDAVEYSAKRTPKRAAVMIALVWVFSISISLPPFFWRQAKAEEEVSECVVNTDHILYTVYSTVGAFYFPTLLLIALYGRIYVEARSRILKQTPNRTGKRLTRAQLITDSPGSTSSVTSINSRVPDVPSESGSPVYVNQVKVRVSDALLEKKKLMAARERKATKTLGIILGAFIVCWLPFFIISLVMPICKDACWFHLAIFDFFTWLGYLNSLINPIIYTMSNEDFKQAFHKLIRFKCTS

As usually defined, the EC50 is the concentration giving half of the maximal effect. The term Ki denotes the dissociation constant of the complex between target and ligand, obtained from inhibition or displacement. High values mean a looser hold on the target, low ones a stronger hold on the target. As for `CCN(CC)C(=O)[C@@H]1C=C2c3cccc4[nH]cc(c34)C[C@H]2N(Cc2ccc(F)cc2)C1` [Compound 49, (6aR,9R)—N,N-diethyl-7-(4-fluorobenzyl)-4,6,6a,7,8,9-hexahydroindolo[4,3-fg]quinoline-9-carboxamide], the EC50 was above 10000 nM in data set [1]; above 10000 nM in data set [2]; 7.68 nM in [4]; 1590 nM in data set [5]; above 10000 nM in [6]. The Emax in [1] turned out to be 37.9%; in [2], 14.3%; in data set [4] it was 39.4%; in [5], 92.5%; in data set [6], 3.58%. In addition, in data set [3], the microsomal CLint amounted to 87.8 µL/min/mg. Also, in data set [3], the half-life is 15.8 min. In addition, the affinity in data set [7] corresponds to a Ki of 1.26 nM.

In the case of `CCN(CC)C(=O)[C@@H]1C=C2c3cccc4[nH]cc(c34)C[C@H]2N(Cc2ccc(Cl)cc2)C1` [Compound 50, (6aR,9R)-7-(4-chlorobenzyl)-N,N-diethyl-4,6,6a,7,8,9-hexahydroindolo[4,3-fg]quinoline-9-carboxamide], the EC50 in data set [1] is above 10000 nM; in [2], above 10000 nM; in [4], 34.7 nM; in data set [5], 3240 nM; in [6], above 10000 nM. For the same compound, the Emax in [1] was determined as 41.9%; in data set [2], 8.23%; in data set [4], 41.2%; in [5], 88.2%; in [6], 2.94%. In data set [3], the microsomal CLint turned out to be 65 µL/min/mg. Also, the half-life in data set [3] turned out to be 21.3 min. Besides, in data set [7], the Ki worked out at 4.15 nM.

Take `CCN(CC)C(=O)[C@@H]1C=C2c3cccc4[nH]cc(c34)C[C@H]2N(Cc2cccc(O)c2)C1` [Compound 62, (6aR,9R)—N,N-diethyl-7-(3-hydroxybenzyl)-4,6,6a,7,8,9-hexahydroindolo[4,3-fg]quinoline-9-carboxamide]: the EC50 was above 10000 nM in data set [1]; 12600 nM in data set [2]; 10.9 nM in [4]; 907 nM in [5]; above 100000 nM in [6]. Further, the Emax was determined as 46.8% in data set [1]; 22.7% in data set [2]; 58.4% in data set [4]; 81.5% in data set [5]; 9.88% in data set [6]. Also, the microsomal CLint in [8] stood at 244 µL/min/mg; in data set [3], 134 µL/min/mg; in [9], 214 µL/min/mg. In addition, the half-life stood at 5.7 min in data set [8], 10.3 min in [3] and 6.5 min in data set [9]. Affinity in data set [7] was put at a Ki of 6.9 nM.

On to `CCN(CC)C(=O)[C@@H]1C=C2c3cccc4[nH]cc(c34)C[C@H]2N(Cc2ccon2)C1` [Compound 70, (6aR,9R)—N,N-diethyl-7-(isoxazol-3-ylmethyl)-4,6,6a,7,8,9-hexahydroindolo[4,3-fg]quinoline-9-carboxamide], for which the EC50 was above 10000 nM in data set [1], 62300 nM in data set [2], 38 nM in [5] and 449 nM in [6]. Further, the Emax came to 17.8% in data set [1], 58.6% in [2], 84.7% in data set [5] and 34.4% in data set [6]. Moreover, the microsomal CLint in data set [8] turned out to be 154 µL/min/mg; in data set [3], 54.3 µL/min/mg; in [9], 47.9 µL/min/mg. Also, the figures for the half-life in data set [8], in data set [3] and in data set [9] were 9 min, 25.5 min and 28.9 min, respectively. Further, the affinity in data set [7], expressed as Ki, was 13.6 nM.

Turning to `CCN(CC)C(=O)[C@@H]1C=C2c3cccc4[nH]cc(c34)C[C@H]2N(Cc2cocn2)C1` [Compound 73, (6aR,9R)—N,N-diethyl-7-(oxazol-4-ylmethyl)-4,6,6a,7,8,9-hexahydroindolo[4,3-fg]quinoline-9-carboxamide], the EC50 worked out at 1370 nM in [1], 586 nM in [2], 47.6 nM in [5] and 375 nM in data set [6]. Besides, the Emax in data set [1] came to 73.6%; in [2], 78.7%; in data set [5], 92.1%; in [6], 60.9%. Moreover, the microsomal CLint worked out at 76.7 µL/min/mg in data set [8], 45.6 µL/min/mg in [3] and 51.8 µL/min/mg in data set [9]. Further, the values for the half-life in data set [8], in data set [3] and in data set [9] were 18.1 min, 30.4 min and 26.8 min, respectively. This compound displayed a Ki in [7] of 8.2 nM.

Take `CCN(CC)C(=O)[C@@H]1C=C2c3cccc4[nH]cc(c34)C[C@H]2N(Cc2cccc(C#N)c2)C1` [Compound 76, (6aR,9R)—N,N-diethyl-7-(3-cyanobenzyl)-4,6,6a,7,8,9-hexahydroindolo[4,3-fg]quinoline-9-carboxamide]: the EC50 in [1] was 1490 nM; in data set [2], 25400 nM; in data set [5], 6620 nM; in data set [6] it was above 10000 nM. The Emax worked out at 93.4% in data set [1], 77% in data set [2], 82.1% in data set [5] and 0.93% in data set [6]. The microsomal CLint was 576 µL/min/mg in data set [8], 64.1 µL/min/mg in [3] and 114 µL/min/mg in [9]. The half-life was found to be 2.4 min in data set [8], 21.6 min in data set [3] and 12.1 min in data set [9]. Besides, in [7], the Ki amounted to 98.5 nM.

For `CCN(CC)C(=O)[C@@H]1C=C2c3cccc4[nH]cc(c34)C[C@H]2N(Cc2ccccc2)C1` [Compound 82, (6aR,9R)-7-benzyl-N,N-diethyl-4,6,6a,7,8,9-hexahydroindolo[4,3-fg]quinoline-9-carboxamide], the EC50 in data set [1] was 992 nM; in [2], 3350 nM; in data set [4], 1.73 nM; in data set [5], 422 nM; in [6], above 10000 nM. For the same compound, the Emax in data set [1] worked out at 62.8%; in [2], 27.8%; in data set [4], 26.1%; in [5], 61.4%; in data set [6], 13.3%. Besides, the figures for the microsomal CLint in data set [8], in data set [3] and in [9] were 553 µL/min/mg, 106 µL/min/mg and 190 µL/min/mg, respectively. Besides, the half-life in data set [8] was found to be 2.5 min; in [3] it was 13 min; in [9], 7.3 min. The affinity in data set [7], expressed as Ki, was 1.94 nM.

The values above are taken from patent US20260317319A1, “NOVEL ERGOLINES AND METHODS OF TREATING MOOD DISORDERS” (Gilgamesh Pharma Inc., priority 2023, published 2026).
